How the values were obtained:
Assay type in all cases: in vivo
[1] = test system: upland rice (Oryza sp., var. Tebonnet, RICE); test: Post-emerge test, crop safety; conditions: post-emerge, 14 days after application, rating scale 0-100
How it was run: (§1)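 Each test used a mechanized track sprayer delivering 187 l/ha of acetone solution at 15–1000 g ai/ha. Post-emerge foliage at 2–3 leaves was treated with added 0.25% v/v non-ionic surfactant and bottom-watered only. Injury was assessed on day 14, where 100 means total kill.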

[2] = test system: field corn (Zea mays L., var. Dekalb 535, CORN); test: Post-emerge test, crop safety; conditions: post-emerge, 14 days after application, rating scale 0-100
How it was run: as §1

[3] = test system: velvetleaf (Abutilon theophrasti, ABUTH); test: Pre-emerge test, greenhouse herbicide activity screening; conditions: rated 14 days after application, 0 = no damage, 100 = complete death
How it was run: (§2)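 Plants grown in 10 cm pots of sandy loam mix received acetone-dissolved compounds through a moving flat-fan nozzle. Doses ranged from 15 to 1000 g ai/ha. Pre-emerge pots were seeded one day earlier, post-emerge pots 8–21 days earlier. Fourteen days on, each pot was graded 0–100 for damage.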

[4] = test system: common ragweed (Ambrosia artemisizfolia L., AMBEL); test: as above; conditions: rated 14 days after application, 0 = no damage, 100 = complete death
How it was run: as §2

[5] = test system: green foxtail (Setaria viridis, SETVI); test: as above; conditions: rated 14 days after application, 0 = no damage, 100 = complete death
How it was run: as §2

[6] = test system: johnsongrass (Sorghum halepense, SORHA); test: as above; conditions: rated 14 days after application, 0 = no damage, 100 = complete death
How it was run: as §2

[7] = test system: large crabgrass (Digitaria sanguinalis, DIGSA); test: as above; conditions: rated 14 days after application, 0 = no damage, 100 = complete death
How it was run: as §2

[8] = test system: lambsquarters (Chenopodium album, CHEAL); test: as above; conditions: rated 14 days after application, 0 = no damage, 100 = complete death
How it was run: as §2

[9] = test system: sicklepod (Cassia obtusifolia, CASOB); test: as above; conditions: rated 14 days after application, 0 = no damage, 100 = complete death
How it was run: as §2

[10] = test system: ivyleaf morningglory (Ipomoea hederacea, IPOHE); test: as above; conditions: rated 14 days after application, 0 = no damage, 100 = complete death
How it was run: as §2

[11] = test system: barnyardgrass (Echinochloa crus-galli, ECHCG); test: as above; conditions: rated 14 days after application, 0 = no damage, 100 = complete death
How it was run: as §2

[12] = test system: redroot pigweed (Amaranthus retroflexus, AMARE); test: as above; conditions: rated 14 days after application, 0 = no damage, 100 = complete death
How it was run: (§3)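 Compounds in acetone were track-sprayed at 187 l/ha, 15–1000 g ai/ha, onto sandy loam pots. Pre-emerge seeds were sown one day before spraying, with surface watering afterwards. Post-emerge plants were at the 2–3 leaf stage and sprayed with 0.25% v/v non-ionic surfactant. Injury was rated 0–100 at 14 days.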

[13] = test system: velvetleaf (Abutilon theophrasti, ABUTH); test: Post-emerge test, greenhouse herbicide activity screening; conditions: post-emerge, 14 days after application, rating scale 0-100
How it was run: (§4)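 Herbicidal damage is scored 0 (none) to 100 (complete plant death) two weeks after a simulated field spray. Rates span 15–1000 g ai/ha, delivered in acetone at 187 l/ha. For post-emergence treatments, plants have 2–3 leaves and the spray carries 0.25% v/v non-ionic surfactant.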

[14] = test system: common ragweed (Ambrosia artemisizfolia L., AMBEL); test: as above; conditions: post-emerge, 14 days after application, rating scale 0-100
How it was run: as §4

[15] = test system: green foxtail (Setaria viridis, SETVI); test: as above; conditions: post-emerge, 14 days after application, rating scale 0-100
How it was run: as §4

[16] = test system: johnsongrass (Sorghum halepense, SORHA); test: as above; conditions: post-emerge, 14 days after application, rating scale 0-100
How it was run: as §4

[17] = test system: redroot pigweed (Amaranthus retroflexus, AMARE); test: as above; conditions: post-emerge, 14 days after application, rating scale 0-100
How it was run: as §4

[18] = test system: large crabgrass (Digitaria sanguinalis, DIGSA); test: as above; conditions: post-emerge, 14 days after application, rating scale 0-100
How it was run: as §4

[19] = test system: lambsquarters (Chenopodium album, CHEAL); test: as above; conditions: post-emerge, 14 days after application, rating scale 0-100
How it was run: as §4

[20] = test system: sicklepod (Cassia obtusifolia, CASOB); test: as above; conditions: post-emerge, 14 days after application, rating scale 0-100
How it was run: as §4

[21] = test system: ivyleaf morningglory (Ipomoea hederacea, IPOHE); test: as above; conditions: post-emerge, 14 days after application, rating scale 0-100
How it was run: as §4

[22] = test system: barnyardgrass (Echinochloa crus-galli, ECHCG); test: as above; conditions: post-emerge, 14 days after application, rating scale 0-100
How it was run: as §4

[23] = test system: upland rice (Oryza sp., var. Tebonnet, RICE); test: Pre-emerge test, crop safety; conditions: rated 14 days after application, 0 = no damage, 100 = complete death
How it was run: as §3

[24] = test system: field corn (Zea mays L., var. Dekalb 535, CORN); test: Pre-emerge test, crop safety; conditions: rated 14 days after application, 0 = no damage, 100 = complete death
How it was run: as §3

SMILES: COc1c(Cl)cc(F)c(-n2c(=O)cc(C(F)(F)F)n(C)c2=O)c1NC(=O)c1ccc(F)cc1 [2-40]
- phytotoxicity rating RICE ([1]; 63 g ai/ha): 50
- phytotoxicity rating RICE ([1]; 250 g ai/ha): 95
- phytotoxicity rating CORN ([2]; 63 g ai/ha): 40
- phytotoxicity rating CORN ([2]; 250 g ai/ha): 90
- Pre-emerge Herbicidal Activity, phytotoxicity rating (0-100), ABUTH ([3]; 63 g ai/ha): 100
- Pre-emerge Herbicidal Activity, phytotoxicity rating (0-100), ABUTH ([3]; 250 g ai/ha): 100
- Pre-emerge Herbicidal Activity, phytotoxicity rating (0-100), AMBEL ([4]; 63 g ai/ha): 100
- Pre-emerge Herbicidal Activity, phytotoxicity rating (0-100), AMBEL ([4]; 250 g ai/ha): 100
- Pre-emerge Herbicidal Activity, phytotoxicity rating (0-100), SETVI ([5]; 63 g ai/ha): 100
- Pre-emerge Herbicidal Activity, phytotoxicity rating (0-100), SETVI ([5]; 250 g ai/ha): 100
- Pre-emerge Herbicidal Activity, phytotoxicity rating (0-100), SORHA ([6]; 63 g ai/ha): 60
- Pre-emerge Herbicidal Activity, phytotoxicity rating (0-100), SORHA ([6]; 250 g ai/ha): 100
- Pre-emerge Herbicidal Activity, phytotoxicity rating (0-100), DIGSA ([7]; 63 g ai/ha): 90
- Pre-emerge Herbicidal Activity, phytotoxicity rating (0-100), DIGSA ([7]; 250 g ai/ha): 100
- Pre-emerge Herbicidal Activity, phytotoxicity rating (0-100), CHEAL ([8]; 63 g ai/ha): 100
- Pre-emerge Herbicidal Activity, phytotoxicity rating (0-100), CHEAL ([8]; 250 g ai/ha): 100
- Pre-emerge Herbicidal Activity, phytotoxicity rating (0-100), CASOB ([9]; 63 g ai/ha): 80
- Pre-emerge Herbicidal Activity, phytotoxicity rating (0-100), CASOB ([9]; 250 g ai/ha): 100
- Pre-emerge Herbicidal Activity, phytotoxicity rating (0-100), IPOHE ([10]; 63 g ai/ha): 90
- Pre-emerge Herbicidal Activity, phytotoxicity rating (0-100), IPOHE ([10]; 250 g ai/ha): 100
- Pre-emerge Herbicidal Activity, phytotoxicity rating (0-100), ECHCG ([11]; 63 g ai/ha): 85
- Pre-emerge Herbicidal Activity, phytotoxicity rating (0-100), ECHCG ([11]; 250 g ai/ha): 100
- Pre-emerge Herbicidal Activity, phytotoxicity rating (0-100), AMARE ([12]; 63 g ai/ha): 100
- Pre-emerge Herbicidal Activity, phytotoxicity rating (0-100), AMARE ([12]; 250 g ai/ha): 100
- phytotoxicity rating ABUTH ([13]; 63 g ai/ha): 100
- phytotoxicity rating ABUTH ([13]; 250 g ai/ha): 100
- phytotoxicity rating AMBEL ([14]; 63 g ai/ha): 80
- phytotoxicity rating AMBEL ([14]; 250 g ai/ha): 100
- phytotoxicity rating SETVI ([15]; 63 g ai/ha): 10
- phytotoxicity rating SETVI ([15]; 250 g ai/ha): 90
- phytotoxicity rating SORHA ([16]; 63 g ai/ha): 30
- phytotoxicity rating SORHA ([16]; 250 g ai/ha): 100
- phytotoxicity rating AMARE ([17]; 63 g ai/ha): 90
- phytotoxicity rating AMARE ([17]; 250 g ai/ha): 100
- phytotoxicity rating DIGSA ([18]; 63 g ai/ha): 10
- phytotoxicity rating DIGSA ([18]; 250 g ai/ha): 90
- phytotoxicity rating CHEAL ([19]; 63 g ai/ha): 80
- phytotoxicity rating CHEAL ([19]; 250 g ai/ha): 95
- phytotoxicity rating CASOB ([20]; 63 g ai/ha): 50
- phytotoxicity rating CASOB ([20]; 250 g ai/ha): 90
- phytotoxicity rating IPOHE ([21]; 63 g ai/ha): 100
- phytotoxicity rating IPOHE ([21]; 250 g ai/ha): 100
- phytotoxicity rating ECHCG ([22]; 63 g ai/ha): 0
- phytotoxicity rating ECHCG ([22]; 250 g ai/ha): 100
- Pre-emerge phytotoxicity rating (0-100), crop damage, RICE ([23]; 63 g ai/ha): 95
- Pre-emerge phytotoxicity rating (0-100), crop damage, RICE ([23]; 250 g ai/ha): 100
- Pre-emerge phytotoxicity rating (0-100), crop damage, CORN ([24]; 63 g ai/ha): 50
- Pre-emerge phytotoxicity rating (0-100), crop damage, CORN ([24]; 250 g ai/ha): 95
